Test [1] deals with human factor Xa (Homo sapiens, UniProt P00742). Kind of test: Chromogenic factor Xa inhibition assay in plasma samples pretreated with oxidizing agent (sodium hypochlorite) and neutralizing agent (HCl). Type of test: biochemical. Conditions: for ΔA/min (conversion of chromogenic factor Xa substrate): plasma without inhibitor 2268. The method, then:
(§1) Various amounts of direct coagulation factor inhibitors (rivaroxaban as direct factor Xa inhibitor, argatroban as direct thrombin inhibitor) or indirect coagulation factor inhibitors (fondaparinux pentasaccharide [Arixtra®], high-molecular-weight heparin [HMWH]) were added to normal human plasma.
(§2) 20 μl of plasma sample were mixed with 10 μl of a 0.1% strength hypochlorous acid (sodium hypochlorite) as oxidizing agent, and the reaction mix was incubated at +37° C. for 30 seconds. Subsequently, 10 μl of a 0.1% strength hydrochloric acid solution were added to the reaction mix to neutralize the oxidizing agent, and the reaction mix was incubated at +37° C. for 30 seconds. Subsequently, 95 μl of factor Xa reagent (human factor Xa, 1 U/ml in TRIS buffer, pH 8.0) were added to the reaction mix, and the reaction mix was incubated at +37° C. for 30 seconds. Subsequently, 80 μl of a chromogenic factor Xa substrate (Z-D-Leu-Gly-Arg-ANBA-methylamide, 4 mmol/l) were added to the reaction mix, and conversion of the substrate (in ΔA/time) was determined at a wavelength of 405 nm in an automated coagulation measurement instrument (BCS® System, Siemens Healthcare Diagnostics).
(§3) The reduction in substrate conversion compared to plasma without any inhibitors correlates with the amount of inhibitor in the sample.

Test [2] addresses bovine thrombin (Bos taurus, UniProt P00735). Description: Chromogenic thrombin inhibition assay in plasma samples pretreated with oxidizing agent (sodium hypochlorite) and neutralizing agent (HCl). Conditions: for ΔA/min (conversion of chromogenic thrombin substrate): plasma without inhibitor 2623. In kind it is biochemical. The method, then: as §1
as §2, with “140” for “95”, “thrombin” for “factor Xa”, “(bovine thrombin, 6 U/ml)” for “(human factor Xa, 1 U/ml in TRIS buffer, pH 8.0)”, “50” for “80”, “(Tos-L-Gly-Pro-Arg-ANBA-isopropylamide,” for “(Z-D-Leu-Gly-Arg-ANBA-methylamide,”
as §3

Where [3] appears, read: 200 ng/ml in normal human plasma, pretreated sample.
Where [4] appears, read: pretreatment with hypochlorite then HCl.
The mark [5] stands for this setting: plasma samples containing the substance.
Setting [6] is: 20 μg/ml in normal human plasma, pretreated sample.
The mark [7] stands for this setting: 200 μg/ml in normal human plasma, pretreated sample.

One may read the inhibition as how much of the control response was suppressed.

human factor Xa, sequence (P00742 235-488 limits assumed): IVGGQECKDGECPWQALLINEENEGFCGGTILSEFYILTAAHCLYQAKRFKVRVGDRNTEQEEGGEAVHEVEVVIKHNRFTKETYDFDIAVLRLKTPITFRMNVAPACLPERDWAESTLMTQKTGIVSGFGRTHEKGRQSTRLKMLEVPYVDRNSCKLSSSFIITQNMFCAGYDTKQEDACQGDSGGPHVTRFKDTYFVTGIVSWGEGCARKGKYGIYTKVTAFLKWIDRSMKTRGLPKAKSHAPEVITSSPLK
human factor Xa, sequence (P00742 41-179 partner limits assumed): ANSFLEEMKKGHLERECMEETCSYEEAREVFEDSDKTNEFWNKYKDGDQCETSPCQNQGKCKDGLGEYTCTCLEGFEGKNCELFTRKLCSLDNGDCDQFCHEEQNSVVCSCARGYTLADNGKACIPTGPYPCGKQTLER

Regarding `CO[C@H]1O[C@H](COS(=O)(=O)O)[C@@H](O[C@@H]2O[C@@H](C(=O)O)[C@@H](O[C@H]3O[C@H](COS(=O)(=O)O)[C@@H](O[C@@H]4O[C@H](C(=O)O)[C@@H](O[C@H]5O[C@H](COS(=O)(=O)O)[C@@H](O)[C@H](O)[C@H]5NS(=O)(=O)O)[C@H](O)[C@H]4O)[C@H](OS(=O)(=O)O)[C@H]3NS(=O)(=O)O)[C@H](O)[C@H]2OS(=O)(=O)O)[C@H](O)[C@H]1NS(=O)(=O)O` [Arixtra, fondaparinux], the inhibition at 1 µg/mL came out at 4% in test [1] (1 μg/ml in normal human plasma, pretreated sample, read-out: FXa inhibition) and 5% in test [2] (1 μg/ml in normal human plasma, pretreated sample). Moreover, the inhibition at 4 µg/mL in test [1] (4 μg/ml in normal human plasma, pretreated sample, read-out: FXa inhibition) was determined as 3%; in test [2] (4 μg/ml in normal human plasma, pretreated sample), 2%.
On to `O=C(NC[C@H]1CN(c2ccc(N3CCOCC3=O)cc2)C(=O)O1)c1ccc(Cl)s1` [rivaroxaban], for which the “ΔA/min (conversion of chromogenic factor Xa substrate)” value in test [1] (setting [3]) is recorded as 1296 ΔA/min. Further, in test [1] (200 ng/ml in normal human plasma, pretreated sample, read-out: FXa inhibition), the inhibition at 0.2 µg/mL was 43%. In test [1] (setting [4]), the “effect of pretreatment of the samples on the inhibition of factor Xa by the substance (in words)” value is “not impaired”. In addition, in test [2] (setting [3]), the inhibition at 0.2 µg/mL is 0% and the “ΔA/min (conversion of chromogenic thrombin substrate)” value was 2612 ΔA/min. The “thrombin inhibition (in words)” value in test [2] (setting [5]) is on record as “thrombin inhibition does not take place”.
Consider `CC1CNc2c(cccc2S(=O)(=O)N[C@@H](CCCNC(=N)N)C(=O)N2CC[C@@H](C)C[C@@H]2C(=O)O)C1` (stereo partly drawn) [argatroban], for which the “ΔA/min (conversion of chromogenic factor Xa substrate)” value in test [1] (setting [6]) is recorded as 2176 ΔA/min. For the same compound, the inhibition at 20 µg/mL in test [1] (20 μg/ml in normal human plasma, pretreated sample, read-out: FXa inhibition) amounted to 4%; in test [2] (setting [6]) it was 95%. Moreover, in test [1] (setting [5]), the “factor Xa inhibition (in words)” value is “factor Xa inhibition does not take place”. The “ΔA/min (conversion of chromogenic thrombin substrate)” value in test [2] (setting [6]) is 140 ΔA/min; in test [2] (setting [7]), 36 ΔA/min. The inhibition at 200 µg/mL in test [2] (setting [7]) is 99%. Also, in test [2] (setting [4]), the “effect of pretreatment of the samples on the inhibition of thrombin by the substance (in words)” value was “not impaired”.

The values are drawn from patent US8685636B2, “Heparin-insensitive method for determining direct coagulation factor inhibitors” (Siemens Healthcare Diagnostics Products GmbH, priority 2011, dated 2014).
